Among the test systems are ACHN renal; A498 renal; HT29 colon; OVCAR-5 ovarian; HCT-116 colon; COLO 205 colon; UACC-62 melanoma; CCRF-CEM leukemia.
Common to all, as to assay: NCI anticancer screen, dose series, 48 h

SMILES strings stand for the structures.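 Grown in 96-well plates, cells were treated for 48 hours with each compound at five concentrations. Insufficient inhibition: endpoint recorded as highest concentration tested. GI50 marks 50% less growth. TGI: concentration producing complete growth inhibition.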

Consider `C/C(O)=C(\N=O)C(=O)NCCc1ccccc1`, for which the TGI is > 100 µM in the assay with ACHN renal; > 100 µM with A498 renal; > 100 µM in the assay with HT29 colon; > 100 µM in the assay on OVCAR-5 ovarian; > 70.1 µM in the assay with HCT-116 colon; > 66.9 µM in the assay with COLO 205 colon. The TGI in the assay on UACC-62 melanoma and in the assay with CCRF-CEM leukemia was > 100 µM each time.

Consider `CCCN(CCCCC(NC(C)=O)C(=O)NCc1ccccc1)C(=O)NCCCl` (centres undefined), for which the TGI in the assay on ACHN renal, in the assay on HT29 colon, in the assay with HCT-116 colon, in the assay on COLO 205 colon, with UACC-62 melanoma and in the assay on CCRF-CEM leukemia was > 100 µM throughout.

With `COC(=O)C1CC(C(=O)OC)c2nc3cc(C)ccc3nc21` (centres undefined), the TGI in the assay with ACHN renal, in the assay on A498 renal, in the assay with HT29 colon, in the assay on OVCAR-5 ovarian, in the assay on COLO 205 colon and in the assay with UACC-62 melanoma was > 100 µM each time. Further, the TGI in the assay on CCRF-CEM leukemia was > 100 µM.

For the compound `CCCCCCCCCCCCCCCCCC(=O)OCC(CN(C)CCN(C)C)OC(=O)CCCCCCCCCCCCCCCCC` (centres undefined), the TGI in the assay on ACHN renal, in the assay on A498 renal, in the assay on HT29 colon, with OVCAR-5 ovarian, in the assay on HCT-116 colon and in the assay with COLO 205 colon was > 100 µM each time. Moreover, the TGI with UACC-62 melanoma and in the assay on CCRF-CEM leukemia was > 100 µM in each case.

Consider `O=S(=O)([O-])c1cccc2cccc(N=Cc3ccccc3[O-])c12.O=S(=O)([O-])c1cccc2cccc(N=Cc3ccccc3[O-])c12.[O]=[U]=[O]`, for which the GI50 with ACHN renal was 38.5 µM; with A498 renal, > 100 µM; in the assay with HT29 colon, 58 µM; in the assay with OVCAR-5 ovarian, > 100 µM; in the assay on HCT-116 colon it was 22.3 µM; in the assay with COLO 205 colon, 64.8 µM. For the same compound, the GI50 with UACC-62 melanoma is > 100 µM; in the assay on CCRF-CEM leukemia, 18.4 µM. The TGI in the assay with ACHN renal, with A498 renal, with HT29 colon, in the assay with OVCAR-5 ovarian, in the assay with HCT-116 colon and in the assay with COLO 205 colon was > 100 µM each time. The TGI in the assay on UACC-62 melanoma and in the assay with CCRF-CEM leukemia was > 100 µM in each case.

Consider `Cc1ccccc1-c1c(N)nc(NC#N)nc1C(=O)Nc1ccccc1`, for which the TGI with ACHN renal, with A498 renal, in the assay with HT29 colon, in the assay on OVCAR-5 ovarian, in the assay with HCT-116 colon and with COLO 205 colon was > 100 µM in each case. The TGI in the assay with UACC-62 melanoma and in the assay on CCRF-CEM leukemia was > 100 µM in each case.

Turning to `Clc1ccc(Cl)c2[s+]snc12`, the TGI with ACHN renal is > 100 µM; in the assay on A498 renal, > 100 µM; in the assay with HT29 colon, 68.3 µM; in the assay on OVCAR-5 ovarian, > 100 µM; with HCT-116 colon it was > 54.9 µM; in the assay with COLO 205 colon, > 60.1 µM. The TGI in the assay on UACC-62 melanoma and in the assay with CCRF-CEM leukemia was > 100 µM in each case.

For `CC(=O)Nc1ccc(C(=O)N2N=C(C)/C(=C/c3ccccc3O)C2=O)cc1`, the TGI in the assay with ACHN renal, in the assay with HT29 colon, in the assay with OVCAR-5 ovarian, in the assay with HCT-116 colon, in the assay with COLO 205 colon and in the assay on CCRF-CEM leukemia was > 100 µM each time.

For `N#CC(NNC(=O)c1ccccc1O)c1ccc(O)cc1` (centres undefined), the TGI with ACHN renal is > 100 µM; with HT29 colon it was > 100 µM; with OVCAR-5 ovarian, > 100 µM; in the assay on HCT-116 colon, > 100 µM; in the assay on COLO 205 colon it was > 100 µM; in the assay with UACC-62 melanoma it was 5.97 µM. The TGI in the assay with CCRF-CEM leukemia is > 100 µM.

For the compound `Cc1ccc(NC(=O)CC2C(=O)Nc3ccccc3S2=O)cc1C` (centres undefined), the TGI in the assay with ACHN renal, in the assay with A498 renal, in the assay with HT29 colon, in the assay with OVCAR-5 ovarian, in the assay on HCT-116 colon and in the assay with UACC-62 melanoma was > 100 µM throughout. Further, the TGI in the assay with CCRF-CEM leukemia is > 100 µM.

With `O=C(O)CNc1c2ccccc2nc2ccccc12`, the TGI in the assay with ACHN renal, with HT29 colon, in the assay with OVCAR-5 ovarian, with HCT-116 colon, in the assay with COLO 205 colon and with UACC-62 melanoma was > 100 µM each time. In the assay on CCRF-CEM leukemia, the TGI was > 100 µM.

For the compound `CSc1nc(NC2OCC(OC(C)=O)C(OC(C)=O)C2OC(C)=O)c2c(OC(C)=O)c(C)c(=O)oc2n1` (centres undefined), the TGI in the assay on ACHN renal, in the assay with A498 renal, in the assay on HT29 colon, in the assay with OVCAR-5 ovarian, in the assay on HCT-116 colon and with COLO 205 colon was > 100 µM throughout. The TGI in the assay with UACC-62 melanoma and in the assay on CCRF-CEM leukemia was > 100 µM each time.

As to `CCCCCCCCCCC/C(=N/O)c1ccc(O)c2ncccc12`, the TGI with ACHN renal was 6.14 µM; in the assay with HT29 colon, 17.2 µM; in the assay with OVCAR-5 ovarian, 6.66 µM; in the assay with HCT-116 colon, 59.9 µM; with COLO 205 colon, > 100 µM.

`COC(=O)C(CCS(=O)(=O)CC(=O)C(=O)Nc1cccc(C(C)=O)c1)C(=O)OC`: the TGI was > 100 µM in the assay on ACHN renal; > 100 µM with A498 renal; > 100 µM with HT29 colon; > 100 µM with OVCAR-5 ovarian; > 100 µM in the assay with HCT-116 colon; > 94.2 µM in the assay on COLO 205 colon. In addition, the TGI in the assay on UACC-62 melanoma is > 100 µM; in the assay with CCRF-CEM leukemia, > 65.5 µM.

As for `CCOC(=O)CC(=O)Sc1ccccc1`, the TGI was 65.7 µM in the assay on ACHN renal; 57.4 µM in the assay on A498 renal; 48.7 µM in the assay on HT29 colon; > 100 µM in the assay with OVCAR-5 ovarian; 26.8 µM in the assay with HCT-116 colon; 52.9 µM with COLO 205 colon. In addition, the TGI was 30.7 µM with UACC-62 melanoma and 51.3 µM in the assay on CCRF-CEM leukemia.

In the case of `[N-]=[N+]=NC(c1cn(C2CC(O)C(CO)O2)c(=O)[nH]c1=O)C(Br)I` (centres undefined), the TGI with ACHN renal, in the assay with HT29 colon, with OVCAR-5 ovarian, with HCT-116 colon, with COLO 205 colon and in the assay on UACC-62 melanoma was > 100 µM throughout. For the same compound, the TGI in the assay on CCRF-CEM leukemia is > 100 µM.

Source of the values: PubChem BioAssay (NCI).
